Experimental data taken from patent US20150182550A1, “INHIBITORS OF THE INTERACTION OF THE SIGMA-1 RECEPTOR WITH hERG FOR USE IN THE TREATMENT OF CANCER” (CENTRE NATIONAL DE LA RECHERCHE SCIENTIFIQUE - CNRS, priority 2011, published 2015).

Assays:
hERG channels = test: Whole-cell patch-clamp of hERG tail currents in K562 cells; details: 10 μM
Description: “Patch-clamp” electrophysiology experiments were carried out in the whole cell configuration. […] This protocol makes it possible to record transient inward currents, the amplitude of which correlates with the depolarization involved during the prepulses. […] (FIGS. 1A,B).
In order to verify a potential interaction between Sig1R and hERG, the effects of selective Sig1R ligands, i.e. igmesine and (+)pentazocine were analyzed with respect to the current. […] The effects of igmesine (10 μM) were then studied on I/V curves recorded at from −70 to 40 mV.
Patch-clamp experiments were then carried out in the K562 shRD and shSig1R cell lines in order to analyze the possible consequences of Sig1R silencing on the properties of hERG.

K562 cells = test: Adhesion of K562 cells to fibronectin (FN); format: cell-based, human; details: for FN-dependent specific cell adhesion: wild-type K562 cells, 10 μM
Description: FIGS. 8A-8B represents the inhibition of the adhesion of K562 cells to FN by igmesine, E-4031 and Sig1R silencing. […] The values represent the mean±standard error of 6 to 9 independent experiments. NS: not significant (Student's t test). […] The values represent the mean±standard error of 12 independent experiments. ***p<0.001 (Student's t test). In one experiment, each value is the mean of three distinct wells.
The role of the Sig1R/hERG interaction on integrin-dependent cell adhesion to the extracellular matrix (ECM) has been tested in vitro. The expression of a single integrin subtype, i.e. integrin α5β1, has been reported in K562 cells. This integrin has a high affinity for fibronectin (FN), a component of the extracellular matrix (ECM). […] In the wild-type cells, the hERG channel blocker (E-4031) and igmesine inhibited FN-dependent specific cell adhesion. […] Likewise, the Sigma ligands no longer have any effect on the adhesion of the shSig1R cells (not represented).

SMILES	effect of extracellular application on hERG currents (hERG channels; K562 cells)	hERG current reduced by (hERG channels; extracellular application, tail current at −120 mV, K562 cells) [%]	FN-dependent specific cell adhesion (K562 cells)	hERG current reduced by (hERG channels; human) [%]	shift towards the left of the half-activation voltage value (hERG channels; human) [mV]	additive effect on adhesion to FN compared with E-4031 alone (K562 cells; E4031+igmesine 10 μM each, K562 cells)
CC(C)=CCN1CCC2(C)c3cc(O)ccc3CC1C2C (single isomer, unassigned; (+)) [(+)pentazocine]	reversibly inhibited	21.19±1.77				
Cc1cccc(CCN2CCC(C(=O)c3ccc(NS(C)(=O)=O)cc3)CC2)n1 [E-4031]			inhibited			
CCC(C/C=C/c1ccccc1)(c1ccccc1)N(C)CC1CC1 (stereo not shown) [igmesine]			inhibited	40.85±2.83	~10	did not produce an additive effect
